Test results: US6358885B1, “Substituted phenylheterocyclic herbicides” (Mississippi State University, priority 1992, dated 2002)

Assays:
[1] = system: barnyardgrass; assay: Test A preemergence/postemergence greenhouse plant response rating 0 to 10; format: in vivo, Echinochchloa crus-galli; settings: 0 to 10 scale, 0 is no effect, 10 is complete control
Method: (§1) Seeds of barnyardgrass (Echinochchloa crus-galli), cheatgrass (Bromus secalinus), cocklebur (Xanthium pensylvanicum), crabgrass (Digitaria spp.), giant foxtail (Setaria faberii), morningglory (Ipomoea spp.), sorghum (Sorghum bicolor), velvetleaf (Abutilon theophrasti), and wild oat (Avena fatua) were planted into a sandy loam soil and treated preemergence with test chemicals dissolved in a non-phytotoxic solvent. At the same time, these crop and weed species were also treated postemergence with test chemicals. Plants ranged in height from two to eighteen cm and were in the two to three leaf stage for the postemergence treatment. Treated plants and untreated controls were maintained in a greenhouse for approximately eleven days, after which all treated plants were compared to untreated controls and visually evaluated for injury. Plant response ratings, summarized in Table A, are based on a 0 to 10 scale where 0 is no effect and 10 is complete control. A dash (-) response means no test results.

[2] = system: cheatgrass; assay: as above; format: in vivo, Bromus secalinus; settings: 0 to 10 scale, 0 is no effect, 10 is complete control
Method: as §1

[3] = system: cocklebur; assay: as above; format: in vivo, Xanthium pensylvanicum; settings: 0 to 10 scale, 0 is no effect, 10 is complete control
Method: as §1

[4] = system: crabgrass; assay: as above; format: in vivo, Digitaria spp.; settings: 0 to 10 scale, 0 is no effect, 10 is complete control
Method: as §1

[5] = system: giant foxtail; assay: as above; format: in vivo, Setaria faberii; settings: 0 to 10 scale, 0 is no effect, 10 is complete control
Method: as §1

[6] = system: morningglory; assay: as above; format: in vivo, Ipomoea spp.; settings: 0 to 10 scale, 0 is no effect, 10 is complete control
Method: as §1

[7] = system: sorghum; assay: as above; format: in vivo, Sorghum bicolor; settings: 0 to 10 scale, 0 is no effect, 10 is complete control
Method: as §1

[8] = system: velvetleaf; assay: as above; format: in vivo, Abutilon theophrasti; settings: 0 to 10 scale, 0 is no effect, 10 is complete control
Method: as §1

[9] = system: wild oat; assay: as above; format: in vivo, Avena fatua; settings: 0 to 10 scale, 0 is no effect, 10 is complete control
Method: as §1

[10] = system: barnyardgrass; assay: Test H postemergence greenhouse plant response rating 0 to 10; format: in vivo, Echinochloa crus-galli; settings: 0 to 10 scale (0 no effect, 10 complete control)
Description: (§2) Seeds of barnyardgrass (Echinochloa crus-galli), black nightshade (Solanum ptycanthum dunal), cocklebur (Xanthium pensylvanicum), common ragweed (Ambrosia elatior), corn (Zea mays), cotton (Gossypium hirsutam), crabgrass (Digitaria spp.), giant foxtail (Setaria faberii), jimsonweed (Datura stramonium), johnson grass (Sorghum halepense), morningglory (Ipomoea spp.), smartweed (Polygonum pensylvanicum), soybean (Glycine max), velvetleaf (Abutilon theophrasti) and purple nutsedge (Cyperus rotundus) tubers were planted into a silt loam soil. These crops and weeds were grown in the greenhouse until the plants ranged in height from two to eighteen cm (one to four leaf stage), then treated postemergence with the test chemicals dissolved in a non-phytotoxic solvent. Pots receiving these postemergence treatments were placed in the greenhouse and maintained according to routine greenhouse procedures. Treated plants and untreated controls were maintained in the greenhouse approximately 21 days after application of the test compound. Visual evaluations of plant injury responses were then recorded.

[11] = system: black nightshade; assay: as above; format: in vivo, Solanum ptycanthum dunal; settings: 0 to 10 scale (0 no effect, 10 complete control)
Description: as §2

[12] = system: cocklebur; assay: as above; format: in vivo, Xanthium pensylvanicum; settings: 0 to 10 scale (0 no effect, 10 complete control)
Description: as §2

[13] = system: common ragweed; assay: as above; format: in vivo, Ambrosia elatior; settings: 0 to 10 scale (0 no effect, 10 complete control)
Description: as §2

[14] = system: corn; assay: as above; format: in vivo, Zea mays; settings: 0 to 10 scale (0 no effect, 10 complete control)
Description: as §2

[15] = system: cotton; assay: as above; format: in vivo, Gossypium hirsutam; settings: 0 to 10 scale (0 no effect, 10 complete control)
Description: as §2

[16] = system: crabgrass; assay: as above; format: in vivo, Digitaria spp.; settings: 0 to 10 scale (0 no effect, 10 complete control)
Description: as §2

[17] = system: giant foxtail; assay: as above; format: in vivo, Setaria faberii; settings: 0 to 10 scale (0 no effect, 10 complete control)
Description: as §2

[18] = system: jimsonweed; assay: as above; format: in vivo, Datura stramonium; settings: 0 to 10 scale (0 no effect, 10 complete control)
Description: as §2

[19] = system: johnson grass; assay: as above; format: in vivo, Sorghum halepense; settings: 0 to 10 scale (0 no effect, 10 complete control)
Description: as §2

[20] = system: morningglory; assay: as above; format: in vivo, Ipomoea spp.; settings: 0 to 10 scale (0 no effect, 10 complete control)
Description: as §2

[21] = system: smartweed; assay: as above; format: in vivo, Polygonum pensylvanicum; settings: 0 to 10 scale (0 no effect, 10 complete control)
Description: as §2

[22] = system: soybean; assay: as above; format: in vivo, Glycine max; settings: 0 to 10 scale (0 no effect, 10 complete control)
Description: as §2

[23] = system: velvetleaf; assay: as above; format: in vivo, Abutilon theophrasti; settings: 0 to 10 scale (0 no effect, 10 complete control)
Description: as §2

[24] = system: purple nutsedge; assay: as above; format: in vivo, Cyperus rotundus; settings: 0 to 10 scale (0 no effect, 10 complete control)
Description: as §2

In the case of `Clc1ccc(-c2nc3n(c2Cl)CCC=C3)c(Cl)c1` [Compound 1], the “Plant response rating, Barnyardgrass” value ([1]; POSTEMERGENCE, Rate 1000 g/ha) was 5, the “Plant response rating, Barnyardgrass” value ([1]; PREEMERGENCE, Rate 1000 g/ha) was 2 and the “Plant response rating, Cheatgrass” value ([2]; POSTEMERGENCE, Rate 1000 g/ha) was 4. The “Plant response rating, Cheatgrass” value ([2]; PREEMERGENCE, Rate 1000 g/ha) was 0, the “Plant response rating, Cocklebur” value ([3]; POSTEMERGENCE, Rate 1000 g/ha) was 8 and the “Plant response rating, Cocklebur” value ([3]; PREEMERGENCE, Rate 1000 g/ha) was 0. For the same molecule, the “Plant response rating, Crabgrass” value ([4]; POSTEMERGENCE, Rate 1000 g/ha) was 5, the “Plant response rating, Crabgrass” value ([4]; PREEMERGENCE, Rate 1000 g/ha) was 0 and the “Plant response rating, Giant foxtail” value ([5]; POSTEMERGENCE, Rate 1000 g/ha) was 4. The “Plant response rating, Giant foxtail” value ([5]; PREEMERGENCE, Rate 1000 g/ha) was 5, the “Plant response rating, Morningglory” value ([6]; POSTEMERGENCE, Rate 1000 g/ha) was 10 and the “Plant response rating, Morningglory” value ([6]; PREEMERGENCE, Rate 1000 g/ha) was 0. The “Plant response rating, Sorghum” value ([7]; POSTEMERGENCE, Rate 1000 g/ha) was 4, the “Plant response rating, Sorghum” value ([7]; PREEMERGENCE, Rate 1000 g/ha) was 0 and the “Plant response rating, Velvetleaf” value ([8]; POSTEMERGENCE, Rate 1000 g/ha) was 10. For the same molecule, the “Plant response rating, Velvetleaf” value ([8]; PREEMERGENCE, Rate 1000 g/ha) was 8, the “Plant response rating, Wild oats” value ([9]; POSTEMERGENCE, Rate 1000 g/ha) was 3 and the “Plant response rating, Wild oats” value ([9]; PREEMERGENCE, Rate 1000 g/ha) was 0. The melting point was 104 to 105 °C.

For `Clc1ccc(-c2nc3n(c2Br)CCCC3)c(Cl)c1` [Compound 2], the “Plant response rating, Barnyardgrass” value ([1]; POSTEMERGENCE, Rate 2000 g/ha) was 9, the “Plant response rating, Barnyardgrass” value ([1]; PREEMERGENCE, Rate 2000 g/ha) was 9 and the “Plant response rating, Cheatgrass” value ([2]; POSTEMERGENCE, Rate 2000 g/ha) was 7. For the same molecule, the “Plant response rating, Cheatgrass” value ([2]; PREEMERGENCE, Rate 2000 g/ha) was 6, the “Plant response rating, Cocklebur” value ([3]; POSTEMERGENCE, Rate 2000 g/ha) was 10 and the “Plant response rating, Cocklebur” value ([3]; PREEMERGENCE, Rate 2000 g/ha) was 0. For the same molecule, the “Plant response rating, Crabgrass” value ([4]; POSTEMERGENCE, Rate 2000 g/ha) was 7, the “Plant response rating, Crabgrass” value ([4]; PREEMERGENCE, Rate 2000 g/ha) was 8 and the “Plant response rating, Giant foxtail” value ([5]; POSTEMERGENCE, Rate 2000 g/ha) was 9. The “Plant response rating, Giant foxtail” value ([5]; PREEMERGENCE, Rate 2000 g/ha) was 10, the “Plant response rating, Morningglory” value ([6]; POSTEMERGENCE, Rate 2000 g/ha) was 10 and the “Plant response rating, Morningglory” value ([6]; PREEMERGENCE, Rate 2000 g/ha) was 2. The “Plant response rating, Sorghum” value ([7]; POSTEMERGENCE, Rate 2000 g/ha) was 6, the “Plant response rating, Sorghum” value ([7]; PREEMERGENCE, Rate 2000 g/ha) was 8 and the “Plant response rating, Velvetleaf” value ([8]; POSTEMERGENCE, Rate 2000 g/ha) was 10. For the same molecule, the “Plant response rating, Velvetleaf” value ([8]; PREEMERGENCE, Rate 2000 g/ha) was 10, the “Plant response rating, Wild oats” value ([9]; POSTEMERGENCE, Rate 2000 g/ha) was 5 and the “Plant response rating, Wild oats” value ([9]; PREEMERGENCE, Rate 2000 g/ha) was 5.

In the case of `C#CCN1C(=O)COc2cc(F)c(-c3nn4c(c3Cl)CCCC4)cc21` [Compound 34], the “Barnyardgrass plant response rating” value ([10]; Rate 4 g/ha) was 0, the “Barnyardgrass plant response rating” value ([10]; Rate 8 g/ha) was 0 and the “Barnyardgrass plant response rating” value ([10]; Rate 16 g/ha) was 0. For the same molecule, the “Black Nightshade plant response rating” value ([11]; Rate 4 g/ha) was 5, the “Black Nightshade plant response rating” value ([11]; Rate 8 g/ha) was 10 and the “Black Nightshade plant response rating” value ([11]; Rate 16 g/ha) was 10. The “Cocklebur plant response rating” value ([12]; Rate 4 g/ha) was 5, the “Cocklebur plant response rating” value ([12]; Rate 8 g/ha) was 10 and the “Cocklebur plant response rating” value ([12]; Rate 16 g/ha) was 10. For the same molecule, the “Common Ragweed plant response rating” value ([13]; Rate 4 g/ha) was 0, the “Common Ragweed plant response rating” value ([13]; Rate 8 g/ha) was 1 and the “Common Ragweed plant response rating” value ([13]; Rate 16 g/ha) was 2. For the same molecule, the “Corn G4689A plant response rating” value ([14]; Rate 4 g/ha) was 1, the “Corn G4689A plant response rating” value ([14]; Rate 8 g/ha) was 1 and the “Corn G4689A plant response rating” value ([14]; Rate 16 g/ha) was 2. The “Cotton plant response rating” value ([15]; Rate 4 g/ha) was 10, the “Cotton plant response rating” value ([15]; Rate 8 g/ha) was 10 and the “Cotton plant response rating” value ([15]; Rate 16 g/ha) was 10. The “Crabgrass plant response rating” value ([16]; Rate 4 g/ha) was 0, the “Crabgrass plant response rating” value ([16]; Rate 8 g/ha) was 0 and the “Crabgrass plant response rating” value ([16]; Rate 16 g/ha) was 0. For the same molecule, the “Giant Foxtail plant response rating” value ([17]; Rate 4 g/ha) was 0, the “Giant Foxtail plant response rating” value ([17]; Rate 8 g/ha) was 0 and the “Giant Foxtail plant response rating” value ([17]; Rate 16 g/ha) was 0. For the same molecule, the “Jimson weed plant response rating” value ([18]; Rate 4 g/ha) was 10, the “Jimson weed plant response rating” value ([18]; Rate 8 g/ha) was 10 and the “Jimson weed plant response rating” value ([18]; Rate 16 g/ha) was 10. The “Johnson Grass plant response rating” value ([19]; Rate 4 g/ha) was 0, the “Johnson Grass plant response rating” value ([19]; Rate 8 g/ha) was 0 and the “Johnson Grass plant response rating” value ([19]; Rate 16 g/ha) was 0. For the same molecule, the “Morningglory plant response rating” value ([20]; Rate 4 g/ha) was 10, the “Morningglory plant response rating” value ([20]; Rate 8 g/ha) was 10 and the “Morningglory plant response rating” value ([20]; Rate 16 g/ha) was 10. For the same molecule, the “Smartweed plant response rating” value ([21]; Rate 4 g/ha) was 5, the “Smartweed plant response rating” value ([21]; Rate 8 g/ha) was 7 and the “Smartweed plant response rating” value ([21]; Rate 16 g/ha) was 8. The “Soybean plant response rating” value ([22]; Rate 4 g/ha) was 7, the “Soybean plant response rating” value ([22]; Rate 8 g/ha) was 7 and the “Soybean plant response rating” value ([22]; Rate 16 g/ha) was 10. The “Velvetleaf plant response rating” value ([23]; Rate 4 g/ha) was 10, the “Velvetleaf plant response rating” value ([23]; Rate 8 g/ha) was 10 and the “Velvetleaf plant response rating” value ([23]; Rate 16 g/ha) was 10. For the same molecule, the “Nutsedge plant response rating” value ([24]; Rate 4 g/ha) was 0, the “Nutsedge plant response rating” value ([24]; Rate 8 g/ha) was 0 and the “Nutsedge plant response rating” value ([24]; Rate 16 g/ha) was 0.
